Measured values as given in patent US6841565B1, “Treatment of patients with chronic lymphocytic leukemia” (The Ohio State University, priority 2002, dated 2005).
Read-outs that look alike come from different tables or passages of the source.

Columns and labels:
1D10 antigen = 1D10 antigen levels on B-CLL cells by immunofluorescence flow cytometry; type: cell-based, human; conditions: 3.0 μM MS-275, 24 hours
Procedure: Washed B-CLL cells, isolated as described in Example 1, from four different patients with B-CLL, were incubated at a concentration of 10^7 cells per ml in the presence or absence of 3.0 μM MS-275 for 24 hours, before being immunofluorescently stained with either non-specific antibody (unable to specifically bind to the cells) or antibody immunospecific for 1D10 antigen. All cells were also stained with an antibody immunospecific for CD19 (recognizing B cells). The cells were analyzed by flow cytometry. The mean fluorescence intensity due to 1D10 antigen staining of CD19-positive cells was recorded.

caspases 8 and 9 = assay: Caspase activation, caspases 8 and 9; type: cell-based, human; conditions: B-CLL cells treated with MS-275, other studies
Procedure: (§1) To determine the role and identity of caspases involved in MS-275-induced apoptosis, B-CLL cells, isolated as described in Example 1, were treated with MS-275 and analyzed for caspase activation by colorimetric assay. […] Cleavage of the protein BID, a known substrate of caspase 8, was also shown.

caspase 3 = assay: Caspase activation colorimetric assay, caspase 3; type: cell-based, human; conditions: B-CLL cells, 0.3 or 3.0 μM MS-275, 24 hours
Procedure: as §1, with “FIG. 4. […] B-CLL patient cells were incubated with 0.3 or 3.0 μM MS-275 for 24 hours. At these time points, lysates were prepared from the cells and caspase 3 activity in the lysates was measured using a colorimetric assay. To” for “To”

B-CLL cells [1] = assay: cells; type: cell-based; conditions: Homo sapiens, read-out: LC50
Procedure: FIG. 1. LC50 determination of MS-275 in primary B-CLL cells. Peripheral blood mononuclear cells (PBMCs) from thirteen individual B-CLL patients were isolated and incubated with varying concentrations of MS-275 from 0.01 to 100 uM. A. Cells were incubated in drug for 4 hours and were then washed and re-incubated in fresh media for a total of 96 hours. B. Cells were incubated in drug for 96 hours continuously. Viability was determined by an MTT assay to detect metabolic activity. Each patient sample at each concentration was run in quadruplicate and was normalized to cells from the same patient incubated for the same time period in media alone. Error bars represent 95% confidence intervals. […]
In order to accurately represent the in vivo situation where drug is eliminated from the bloodstream, 1×10^6 PBMCs from B-CLL patients or healthy volunteers, isolated as described in Example 1, were incubated in various concentrations of MS-275 in RPMI 1640 with 10% heat-inactivated fetal bovine serum for 4, 24 or 96 hours at 37° C. in 96-well plates. […] Viability of the cells was then analyzed using the MTT assay. […] To use the MTT assay, MTT reagent was added and the cells were incubated for an additional 24 hours before washing and analysis of purple formazan formation by spectrophotometry in a Labsystems 96-well plate reader. […]

[2] = test system: cellular histone deacetylase activity; conditions: A. Saito, et al., 1999; cited from earlier work
B-CLL cells [3] = assay: Annexin V/propidium iodide flow cytometric apoptosis assay; type: cell-based, human
Procedure: FIG. 3. […] B-CLL patient cells were incubated with 0, 0.3, or 3.0 μM MS-275 for 24 hours. Apoptosis was assessed by annexin V/propidium iodide flow cytometry. To determine whether MS-275-treated B-CLL cells were undergoing apoptosis, an annexin V/propidium iodide flow cytometric assay was used to analyze the B-CLL cells, isolated as described in Example 1, from four different patients. Staining of cells for annexin V is an early indicator of initiation of apoptosis. Staining of cells with propidium iodide is an indicator that cells are no longer viable and, therefore, that apoptosis has actually occurred (i.e., integrity of cell membrane has been breached). To perform the assay, cells were exposed to various concentrations of MS-275 for 4 hours. Then, the cells were washed, resuspended in complete medium and incubated for 24 or 48 hours in absence of MS-275. At these times, cells were washed with PBS and resuspended in binding buffer containing annexin V-FITC and propidium iodide (BD Pharmingen, San Diego, Calif.). After 15 minutes of incubation in the dark at room temperature, apoptosis was assessed by flow cytometry on a Coulter EPICS-XL flow cytometer. […] The results were similar in the other three patients.

human tumor cell lines = conditions: A. Saito, et al., 1999; cited from earlier work
histone deacetylases = assay: Histone acetylation in B-CLL cells by immunoblotting; type: cell-based, human
Procedure: FIG. 2. MS-275 induced acetylation of histone proteins. PBMCs from two different B-CLL patients (Patient No. 1 and 2) were collected and incubated with 0, 0.3, or 3.0 μM MS-275 for 24 hours. Nuclear extracts were prepared from the cells and were separated by SDS-polyacrylamide gel electrophoresis before immunoblotting with antibodies immunospecific for acetylated forms of H3 or H4 histones. Coomassie blue staining was used to control for protein amount loaded onto the SDS polyacrylamide gels.
Antibodies immunospecific for specific acetylated lysine residues at the N terminus of histone H4 (i.e., K5, K8, K12 and K16) were also used. For immunoblotting, whole cell lysates were prepared from the cells using standard procedures. Protein samples were separated along with molecular weight markers (BioRad) on 10 to 14% SDS-polyacrylamide gels. Proteins in the gels were transferred using a semidry apparatus (BioRad) onto nitrocellulose membranes (Schleicher and Schuell, Keene, N.H.). Gel loading equivalence was confirmed by Ponceau S stain (Sigma) of membranes and by probing with a monoclonal antibody for GAPDH. Blots were developed with chemiluminescent substrate (Pierce Super-Signal, Pierce Biotechnology, Rockford, Ill.) and autoradiography was performed with X-OMAT film (Kodak, Rochester, N.Y.). Protein bands were digitally quantified using a ChemiDoc instrument (BioRad).

in vitro = type: cell-based; conditions: human
From the text: Peripheral blood mononuclear cells (PBMCs) were obtained from the B-CLL patients and were also obtained from healthy volunteers as controls. Peripheral blood was collected from the patients or volunteers using standard techniques (see for example, S. Bennett and S. N. Breit, 1994, Variables in the isolation and culture of human monocytes that are of particular relevance to studies of HIV, J. Leukoc. Biol. 56:236-40). PMBCs were isolated from the blood using standard density gradient centrifugation using Ficoll-Paque Plus (Pharmacia Biotech, Picsataway N.J.). After isolation, the PBMCs were washed in phosphate-buffered saline (PBS).
In order to accurately represent the in vivo situation where drug is eliminated from the bloodstream, 1×10^6 PBMCs from B-CLL patients or healthy volunteers, isolated as described in Example 1, were incubated in various concentrations of MS-275 in RPMI 1640 with 10% heat-inactivated fetal bovine serum for 4, 24 or 96 hours at 37° C. in 96-well plates. […] Viability of the cells was then analyzed using the MTT assay. […] To use the MTT assay, MTT reagent was added and the cells were incubated for an additional 24 hours before washing and analysis of purple formazan formation by spectrophotometry in a Labsystems 96-well plate reader. Data were plotted and values were calculated using GraphPad software (San Diego, Calif.).

[4] = Patient No. 1, CD19-positive B-CLL cells
[5] = Patient No. 2, CD19-positive B-CLL cells
[6] = Patient No. 3, CD19-positive B-CLL cells
[7] = Patient No. 4, CD19-positive B-CLL cells
[8] = Patient No. 1, 0.3 μM MS-275, 24 hours
[9] = Patient No. 1, 3.0 μM MS-275, 24 hours
[10] = Patient No. 2, 0.3 μM MS-275, 24 hours
[11] = Patient No. 2, 3.0 μM MS-275, 24 hours

## Nc1ccccc1NC(=O)c1ccc(CNC(=O)OCc2cccnc2)cc1 [MS-275, N-(2-aminophenyl)-4-[N-(pyridin-3-yl-methoxycarbonyl)aminomethyl]benzamide]
1D10 antigen; [4]
  mean 1D10 fluorescence normalized to the staining control: 88
  mean 1D10 fluorescence of the cells: 104.11
1D10 antigen; [5]
  mean 1D10 fluorescence normalized to the staining control: 393
  mean 1D10 fluorescence of the cells: 463.23
1D10 antigen; [6]
  mean 1D10 fluorescence normalized to the staining control: 3252
  mean 1D10 fluorescence of the cells: 6438.03
1D10 antigen; [7]
  mean 1D10 fluorescence normalized to the staining control: 4158
  mean 1D10 fluorescence of the cells: 5446.76
Caspases 8 and 9
  caspases 8 and 9 activation: activated to a lesser extent than caspase 3
Caspase 3
  caspase 3 activation: induced activation of caspase 3
B-CLL cells [1]; 96 h
  CC50: 509 nM
B-CLL cells [1]
  CC50: 1210 nM
[2]
  inhibition of cellular histone deacetylase activity: inhibit cellular histone deacetylase activity
B-CLL cells [3]; 0.3 μM of MS-275, after 48 hours
  apoptosis (annexin V/propidium iodide flow cytometry): apoptosis was detected after 48 hours
B-CLL cells [3]; 3.0 μM of MS-275, within 24 hours, one representative patient
  apoptosis (annexin V/propidium iodide flow cytometry): apoptosis was detected within 24 hours
B-CLL cells [3]; expression of the anti-apoptotic protein Bcl-2, other studies
  effect of Bcl-2 expression on MS-275-induced apoptosis: inhibited by expression of the anti-apoptotic protein Bcl-2
Human tumor cell lines
  growth in a variety of human tumor cell lines: block growth
Histone deacetylases; [8]
  Fold Increase in Histone Acetylation (Relative to Untreated), H3 Total: 1.3 fold
  Fold Increase in Histone Acetylation (Relative to Untreated), H4 K5: 2.7 fold
  Fold Increase in Histone Acetylation (Relative to Untreated), H4 K8: 1.6 fold
  Fold Increase in Histone Acetylation (Relative to Untreated), H4 K12: 4.4 fold
  Fold Increase in Histone Acetylation (Relative to Untreated), H4 K16: 3.7 fold
  Fold Increase in Histone Acetylation (Relative to Untreated), H4 Total: 2.4 fold
Histone deacetylases; [9]
  Fold Increase in Histone Acetylation (Relative to Untreated), H3 Total: 2.3 fold
  Fold Increase in Histone Acetylation (Relative to Untreated), H4 K5: 8.9 fold
  Fold Increase in Histone Acetylation (Relative to Untreated), H4 K8: 1.9 fold
  Fold Increase in Histone Acetylation (Relative to Untreated), H4 K12: 15.8 fold
  Fold Increase in Histone Acetylation (Relative to Untreated), H4 K16: 9.1 fold
  Fold Increase in Histone Acetylation (Relative to Untreated), H4 Total: 3.9 fold
Histone deacetylases; [10]
  Fold Increase in Histone Acetylation (Relative to Untreated), H3 Total: 1.5 fold
  Fold Increase in Histone Acetylation (Relative to Untreated), H4 K5: 2.6 fold
  Fold Increase in Histone Acetylation (Relative to Untreated), H4 K8: 4.4 fold
  Fold Increase in Histone Acetylation (Relative to Untreated), H4 K12: 5.1 fold
  Fold Increase in Histone Acetylation (Relative to Untreated), H4 K16: 3.1 fold
  Fold Increase in Histone Acetylation (Relative to Untreated), H4 Total: 3.8 fold
Histone deacetylases; [11]
  Fold Increase in Histone Acetylation (Relative to Untreated), H3 Total: 3.1 fold
  Fold Increase in Histone Acetylation (Relative to Untreated), H4 K5: 4.5 fold
  Fold Increase in Histone Acetylation (Relative to Untreated), H4 K8: 4.8 fold
  Fold Increase in Histone Acetylation (Relative to Untreated), H4 K12: 10.3 fold
  Fold Increase in Histone Acetylation (Relative to Untreated), H4 K16: 4.7 fold
  Fold Increase in Histone Acetylation (Relative to Untreated), H4 Total: 5.2 fold
In vitro
  CC50 at 4 h: ≥ 21100 nM
  CC50 at 96 h: ≥ 4750 nM
